Each compound was assayed on production of CD69 by B lymphocytes in human whole blood (assay: CD69 Whole Blood Assay (CD69 Hu Blood FACS)). Settings: human whole blood activated with goat F(ab')2 anti-human IgM, 20 hours; CD69 on CD20 positive cells by FACS; Table 1.
Assay type: cell-based
Description: A CD69 Whole Blood Assay can be conducted on Formula I compounds to determine the ability of compounds to inhibit the production of CD69 by B lymphocytes in human whole blood activated by crosslinking surface IgM with goat F(ab′)2 anti-human IgM (Example 907). CD69 is a type II C-type lectin involved in lymphocyte migration and cytokine secretion. CD69 expression represents one of the earliest available indicators of leukocyte activation and its rapid induction occurs through transcriptional activation (Vazquez et al (2009) Jour. of Immunology Published Oct. 19, 2009, doi:10.4049/jimmunol.0900839). Concentration-dependent inhibition of antigen receptor stimulation by selective Btk inhibitors induces cell surface expression of the lymphocyte activation marker CD69 (Honigberg et al (2010) Proc. Natl. Acad. Sci. 107(29):13075-13080). Thus, CD69 inhibition by selective Btk inhibitors may be correlated with therapeutic efficacy of certain B-cell disorders.
Human blood is obtained from healthy volunteers, with the following restrictions: 1 week drug-free, non-smokers. Blood (approximately 20 mls to test 8 compounds) is collected by venipuncture into Vacutainer® (Becton, Dickinson and Co.) tubes with sodium heparin.
Solutions of Formula I and II compounds at 10 mM in DMSO are diluted 1:10 in 100% DMSO, then are diluted by three-fold serial dilutions in 100% DMSO for a ten point dose-response curve. The compounds are further diluted 1:10 in PBS and then an aliquot of 5.5 μl of each compound is added in duplicate to a 2 ml 96-well plate; 5.5 μl of 10% DMSO in PBS is added as control and no-stimulus wells. Human whole blood —HWB (100 μl) is added to each well. After mixing the plates are incubated at 37° C., 5% CO2, 100% humidity for 30 minutes. Goat F(ab′)2 anti-human IgM (10 μl of a 500 μg/ml solution, 50 μg/ml final) is added to each well (except the no-stimulus wells) with mixing and the plates are incubated for an additional 20 hours. At the end of the 20 hour incubation, samples are incubated with fluorescent labeled antibodies for 30 minutes, at 37° C., 5% CO2, 100% humidity. Include induced control, unstained and single stains for compensation adjustments and initial voltage settings. Samples are then lysed with PharM Lyse™ (BD Biosciences Pharmingen) according to the manufacturer's instructions. Samples are then transferred to a 96 well plate suitable to be run on the BD Biosciences HTS 96 well system on the LSRII machine. Data acquired and Mean Fluorescence Intensity values were obtained using BD Biosciences DIVA Software. Results are initially analyzed by FACS analysis software (Flow Jo). […] The inhibitory concentration (IC50, IC70, IC90) values are calculated by Prism version 5, using a nonlinear regression curve fit.
Work on `C[C@@H]1CN(C2COC2)CCN1c1ccc(Nc2cc(-c3cc(F)cc(-n4ncc5cc(C(C)(C)C)cc(F)c5c4=O)c3CO)cn(C)c2=O)nc1` [Compound 107, (R)-6-tert-butyl-8-fluoro-2-(5-fluoro-2-(hydroxymethyl)-3-(1-methyl-5-(5-(2-methyl-4-(oxetan-3-yl)piperazin-1-yl)pyridin-2-ylamino)-6-oxo-1,6-dihydropyridin-3-yl)phenyl)phthalazin-1(2H)-one] yielded a CD69 Hu Blood FACS (IC70) of 26.3 nM.
`CN1CCN(c2ccc(Nc3cc(-c4cccc(-n5ncc6cc(C(C)(C)C)cc(F)c6c5=O)c4CO)cn(C)c3=O)nc2)CC1` [Compound 101, 6-tert-butyl-8-fluoro-2-(2-(hydroxymethyl)-3-(1-methyl-5-(5-(4-methylpiperazin-1-yl)pyridin-2-yl-amino)-6-oxo-1,6-dihydropyridin-3-yl)phenyl)phthalazin-1(2H)-one] was tested, and the CD69 Hu Blood FACS (IC70) was 24 nM.
`Cn1cc(-c2cc(F)cc(-n3ncc4cc(C(C)(C)C)cc(F)c4c3=O)c2CO)cc(Nc2ccc(N3CCN(C4COC4)CC3)cn2)c1=O` [Compound 102, 6-tert-butyl-8-fluoro-2-(5-fluoro-2-(hydroxymethyl)-3-(1-methyl-5-(5-(4-(oxetan-3-yl)piperazin-1-yl)pyridin-2-ylamino)-6-oxo-1,6-dihydropyridin-3-yl)phenyl)phthalazin-1(2H)-one] was tested, and the CD69 Hu Blood FACS (IC70) was 12 nM.
`Cn1cc(-c2ccnc(-n3ncc4cc(C(C)(C)C)cc(F)c4c3=O)c2CO)cc(Nc2ccc(N3CCN(C4COC4)CC3)cn2)c1=O` [Compound 103, 6-tert-butyl-8-fluoro-2-(3-(hydroxymethyl)-4-(1-methyl-5-(5-(4-(oxetan-3-yl)piperazin-1-yl)pyridin-2-ylamino)-6-oxo-1,6dihydropyridin-3-yl)pyridin-2-yl)phthalazin-1(2H)-one] was tested, and the CD69 Hu Blood FACS (IC70) was 13 nM.

Same assay, conditions: human whole blood activated with goat F(ab')2 anti-human IgM, 20 hours; CD69 on CD20 positive cells by FACS; Table 2
For `Cn1ccc(Nc2cc(-c3ccnc(-n4ncc5cc(C(C)(C)C)cc(F)c5c4=O)c3CO)cn(C)c2=O)n1` [Compound 140, 6-tert-butyl-8-fluoro-2-[3-(hydroxymethyl)-4-[1-methyl-5-[(1-methylpyrazol-3-yl)amino]-6-oxo-3-pyridyl]-2-pyridyl]phthalazin-1-one], the CD69 Hu Blood FACS (IC70) was 68 nM.
Compound `Cn1cc(-c2ccnc(-n3ncc4cc(C(C)(C)C)cc(F)c4c3=O)c2CO)cc(Nc2ccc(C(C)(C)C#N)cn2)c1=O` [Compound 156, 2-[6-[[5-[2-(6-tert-butyl-8-fluoro-1-oxo-phthalazin-2-yl)-3-(hydroxymethyl)-4-pyridyl]-1-methyl-2-oxo-3-pyridyl]amino]-3-pyridyl]-2-methyl-propanenitrile] has a CD69 Hu Blood FACS (IC70) of 31 nM.
`C[C@@H]1COCCN1C(=O)c1ccc(Nc2cc(-c3ccnc(-n4ncc5cc(C(C)(C)C)cc(F)c5c4=O)c3CO)cn(C)c2=O)nc1` [Compound 132, 6-tert-butyl-8-fluoro-2-[3-(hydroxymethyl)-4-[1-methyl-5-[[5-[(3R)-3-methylmorpholine-4-carbonyl]-2-pyridyl]amino]-6-oxo-3-pyridyl]-2-pyridyl]phthalazin-1-one] showed a CD69 Hu Blood FACS (IC70) of 14 nM.
`Cn1nc(Nc2cc(-c3ccnc(-n4ncc5cc(C(C)(C)C)cc(F)c5c4=O)c3CO)cn(C)c2=O)cc1C(=O)N1CCCC1` [Compound 144, 6-tert-butyl-8-fluoro-2-[3-(hydroxymethyl)-4-[1-methyl-5-[[1-methyl-5-(pyrrolidine-1-carbonyl)pyrazol-3-yl]amino]-6-oxo-3-pyridyl]-2-pyridyl]phthalazin-1-one] was tested, and the CD69 Hu Blood FACS (IC70) was 20.3 nM.
For `Cc1cc(Nc2cc(-c3ccnc(-n4ncc5cc(C(C)(C)C)cc(F)c5c4=O)c3CO)cn(C)c2=O)nn1C` [Compound 119, 6-tert-butyl-2-[4-[5-[(1,5-dimethylpyrazol-3-yl)amino]-1-methyl-6-oxo-3-pyridyl]-3-(hydroxymethyl)-2-pyridyl]-8-fluoro-phthalazin-1-one], the CD69 Hu Blood FACS (IC70) was 24.7 nM.
With `Cn1cnc(Nc2cc(-c3ccnc(-n4ncc5cc(C(C)(C)C)cc(F)c5c4=O)c3CO)cn(C)c2=O)c1` [Compound 130, 6-tert-butyl-8-fluoro-2-[3-(hydroxymethyl)-4-[1-methyl-5-[(1-methylimidazol-4-yl)amino]-6-oxo-3-pyridyl]-2-pyridyl]phthalazin-1-one] the CD69 Hu Blood FACS (IC70) was 152 nM.
For `Cc1cc(Nc2cc(-c3ccnc(-n4ncc5cc(C(C)(C)C)cc(F)c5c4=O)c3CO)cn(C)c2=O)n[nH]1` [Compound 121, 6-tert-butyl-8-fluoro-2-[3-(hydroxymethyl)-4-[1-methyl-5-[(5-methyl-1H-pyrazol-3-yl)amino]-6-oxo-3-pyridyl]-2-pyridyl]phthalazin-1-one], the CD69 Hu Blood FACS (IC70) was 79.3 nM.
`CN1CCn2nc(Nc3cc(-c4ccnc(-n5ncc6cc(C(C)(C)C)cc(F)c6c5=O)c4CO)nn(C)c3=O)cc2C1` [Compound 153, 6-tert-butyl-8-fluoro-2-[3-(hydroxymethyl)-4-[1-methyl-5-[(5-methyl-6,7-dihydro-4H-pyrazolo[1,5-a]pyrazin-2-yl)amino]-6-oxo-pyridazin-3-yl]-2-pyridyl]phthalazin-1-one] was tested, and the CD69 Hu Blood FACS (IC70) was 59.6 nM.
For `Cn1nc(-c2ccnc(-n3ncc4cc(C(C)(C)C)cc(F)c4c3=O)c2CO)cc(Nc2ccc(C(=O)N3CCOCC3)cn2)c1=O` [Compound 116, 6-tert-butyl-8-fluoro-2-[3-(hydroxymethyl)-4-[1-methyl-5-[[5-(morpholine-4-carbonyl)-2-pyridyl]amino]-6-oxo-pyridazin-3-yl]-2-pyridyl]phthalazin-1-one], the CD69 Hu Blood FACS (IC70) was 93.5 nM.
`Cc1cnc(Nc2cc(-c3ccnc(-n4ncc5cc(C(C)(C)C)cc(F)c5c4=O)c3CO)cn(C)c2=O)o1` [Compound 125, 6-tert-butyl-8-fluoro-2-[3-(hydroxymethyl)-4-[1-methyl-5-[(5-methyloxazol-2-yl)amino]-6-oxo-3-pyridyl]-2-pyridyl]phthalazin-1-one] showed a CD69 Hu Blood FACS (IC70) of 521 nM.
In the case of `Cc1cnc(Nc2cc(-c3ccnc(-n4ncc5cc(C(C)(C)C)cc(F)c5c4=O)c3CO)cn(C)c2=O)s1` [Compound 120, 6-tert-butyl-8-fluoro-2-[3-(hydroxymethyl)-4-[1-methyl-5-[(5-methylthiazol-2-yl)amino]-6-oxo-3-pyridyl]-2-pyridyl]phthalazin-1-one], the CD69 Hu Blood FACS (IC70) is reported as 139 nM.
`CCn1nc(Nc2cc(-c3ccnc(-n4ncc5cc(C(C)(C)C)cc(F)c5c4=O)c3CO)cn(C)c2=O)cc1C` [Compound 118, 6-tert-butyl-2-[4-[5-[(1-ethyl-5-methyl-pyrazol-3-yl)amino]-1-methyl-6-oxo-3-pyridyl]-3-(hydroxymethyl)-2-pyridyl]-8-fluoro-phthalazin-1-one] gave a CD69 Hu Blood FACS (IC70) of 112 nM.
Compound `CN1CCn2nc(Nc3cc(-c4ccnc(-n5ncc6cc(C(C)(C)C)cc(F)c6c5=O)c4CO)cn(C)c3=O)cc2C1` [Compound 128, 6-tert-butyl-8-fluoro-2-[3-(hydroxymethyl)-4-[1-methyl-5-[(5-methyl-6,7-dihydro-4H-pyrazolo[1,5-a]pyrazin-2-yl)amino]-6-oxo-3-pyridyl]-2-pyridyl]phthalazin-1-one] has a CD69 Hu Blood FACS (IC70) of 27.2 nM.
With `Cn1cc(-c2ccnc(-n3ncc4cc(C(C)(C)C)cc(F)c4c3=O)c2CO)cc(Nc2cnccn2)c1=O` [Compound 160, 6-tert-butyl-8-fluoro-2-[3-(hydroxymethyl)-4-[1-methyl-6-oxo-5-(pyrazin-2-ylamino)-3-pyridyl]-2-pyridyl]phthalazin-1-one] the CD69 Hu Blood FACS (IC70) was 116 nM.
In the case of `Cn1cc(-c2ccnc(-n3ncc4cc(C(C)(C)C)cc(F)c4c3=O)c2CO)cc(Nc2cc3n(n2)CC(C)(C)OC3)c1=O` [Compound 139, 6-tert-butyl-2-[4-[5-[(6,6-dimethyl-4,7-dihydropyrazolo[5,1-c][1,4]oxazin-2-yl)amino]-1-methyl-6-oxo-3-pyridyl]-3-(hydroxymethyl)-2-pyridyl]-8-fluoro-phthalazin-1-one], the CD69 Hu Blood FACS (IC70) is reported as 61.6 nM.
`Cc1cc(Nc2cc(-c3ccnc(-n4ncc5cc(C(C)(C)C)cc(F)c5c4=O)c3CO)cn(C)c2=O)nn1CC(F)F` [Compound 145, 6-tert-butyl-2-[4-[5-[[1-(2,2-difluoroethyl)-5-methyl-pyrazol-3-yl]amino]-1-methyl-6-oxo-3-pyridyl]-3-(hydroxymethyl)-2-pyridyl]-8-fluoro-phthalazin-1-one] was tested, and the CD69 Hu Blood FACS (IC70) was 163 nM.
